{"source": "patent US12357636B2", "about": "(Urovant Sciences GmbH, priority 2018, dated 2025)", "key": {"patients with OAB": {"tested_on": "patients with OAB", "test": "Phase 2b study: cardiovascular safety, orthostatic AEs, blood pressure and heart rate changes (Table 17)", "type": "in vivo, human", "conditions": "for SBP Change from Baseline [≥] 10 mm Hg, n/N (%) / SBP Change from Baseline ≥15 mm Hg, n/N (%) / DBP Change from Baseline [≥] 5 mm Hg, n/N (%) / DBP Change from Baseline [≥] 10 mm Hg, n/N (%) / DBP Change from Baseline ≥15 mm Hg, n/N (%) / HR Change from Baseline [≥] 10 bpm, n/N (%) / HR Change from Baseline ≥5 bpm, n/N (%) / HR Change from Baseline ≥15 bpm, n/N (%) / SBP Change from Baseline [≥] 5 mm Hg, n/N (%): counts based on 3 consecutive post-baseline visits; for DBP Change from Baseline, Mean (95% CI) Max / HR Change from Baseline, Mean (95% CI) Maximum / SBP Change from Baseline, Mean (95% CI) Maximum: mean maximum from week 1 to 8", "from_the_text": "None led to discontinuation. The overall incidence of orthostatic symptoms was low.\nSmall differences in the percent of subjects exceeding categorical heart rate and blood pressure thresholds for vibegron were similar to those in the tolterodine arm."}, "[1]": {"test": "PK in moderate hepatic impairment, single dose 100 mg", "type": "in vivo, human", "conditions": "single 100 mg, healthy matched control subjects"}, "healthy subjects [2]": {"tested_on": "healthy subjects", "conditions": "in vivo"}, "healthy subjects [3]": {"tested_on": "healthy subjects", "test": "multiple-dose Phase 1 study: maximum MA4 heart rate", "type": "in vivo, human", "conditions": "Day 14", "protocol": "More intensive assessments of heart rate and blood pressure were performed in healthy volunteers in several Phase 1 studies. […] Doses ranged from 25 to 400 mg once daily for 7 to 28 days depending on the cohort. Least squares mean and 90% confidence intervals of maximum change from baseline in moving average of heart rate over 4 hours postdose (MA4 HR) are presented in Table 18."}, "healthy subjects [4]": {"tested_on": "healthy subjects", "quoted_text": "Safety data from 16 Phase 1 studies, which include 15 completed Phase 1 studies and 1 study that was terminated early (this study was terminated for reasons unrelated to efficacy or safety) was collected."}, "[5]": {"tested_on": "men and women with overactive bladder", "test": "Phase 3 study vibegron 75 mg: safety and tolerability", "type": "in vivo, human", "conditions": "75 mg QD, 12 weeks", "protocol": "Safety analyses were conducted using the SAF and summarized by treatment group as treated. The treatment-emergent period is defined as the period of time from the first dose date of the double blinded Study Treatment through 28 days after the last dose of Study Treatment, or the date of initiation of another investigational agent or surgical intervention or rollover to the extension study, whichever occurs first. Safety was assessed through summaries of adverse events, the frequency of treatment discontinuations due to adverse events, and clinical laboratory evaluations."}, "β1-AR": {"target": "T1, β1-AR (Homo sapiens, UniProt P08588)", "T1 construct": "expressed in transfected cells; membranes prepared from them", "T1 sequence (P08588 whole entry)": "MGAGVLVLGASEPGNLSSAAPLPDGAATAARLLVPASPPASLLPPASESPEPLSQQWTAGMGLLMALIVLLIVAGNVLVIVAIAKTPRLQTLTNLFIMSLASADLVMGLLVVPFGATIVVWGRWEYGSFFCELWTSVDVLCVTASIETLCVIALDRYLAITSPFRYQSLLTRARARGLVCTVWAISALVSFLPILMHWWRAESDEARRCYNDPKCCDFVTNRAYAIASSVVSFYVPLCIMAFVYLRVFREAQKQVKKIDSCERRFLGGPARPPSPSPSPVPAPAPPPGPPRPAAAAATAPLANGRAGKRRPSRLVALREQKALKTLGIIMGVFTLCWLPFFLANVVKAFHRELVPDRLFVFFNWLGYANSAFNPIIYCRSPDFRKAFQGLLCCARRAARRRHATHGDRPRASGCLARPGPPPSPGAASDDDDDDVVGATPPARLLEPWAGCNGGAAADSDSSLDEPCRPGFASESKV", "test": "competition binding assay, membranes with recombinant β1-AR"}}, "data": [{"smiles": "O=C(Nc1ccc(C[C@@H]2CC[C@H]([C@H](O)c3ccccc3)N2)cc1)[C@@H]1CCc2nccc(=O)n21", "note": "[Vibegron, (6S)—N-[4-[[(2S,5R)-5-[(R)-hydroxy(phenyl)methyl]pyrrolidin-2-yl]methyl]phenyl]-4-oxo-7,8-dihydro-6H-pyrrolo[1,2-a]pyrimidine-6-carboxamide]", "values": [{"measurement": "SBP Change from Baseline [≥] 10 mm Hg, n/N (%)", "setting": "patients with OAB; vibegron 15 mg", "value": "9/132 (6.8) %"}, {"measurement": "SBP Change from Baseline ≥15 mm Hg, n/N (%)", "setting": "patients with OAB; vibegron 15 mg", "value": "1/132 (0.8) %"}, {"measurement": "DBP Change from Baseline, Mean (95% CI) Max", "setting": "patients with OAB; vibegron 15 mg", "value": "6.37 (5.20, 7.53) mm Hg"}, {"measurement": "HR Change from Baseline, Mean (95% CI) Maximum", "setting": "patients with OAB; vibegron 15 mg", "value": "6.56 (5.20, 7.92) bpm"}, {"measurement": "SBP Change from Baseline, Mean (95% CI) Maximum", "setting": "patients with OAB; vibegron 15 mg", "value": "8.93 (7.18, 10.67) mm Hg"}, {"measurement": "DBP Change from Baseline, Mean (95% CI) (week 1)", "setting": "patients with OAB; vibegron 15 mg", "value": "0.03 (−1.52, 1.59) mm Hg"}, {"measurement": "HR Change from Baseline, Mean (95% CI) (week 1)", "setting": "patients with OAB; vibegron 15 mg", "value": "0.35 (−1.15, 1.85) bpm"}, {"measurement": "SBP Change from Baseline, Mean (95% CI) (week 1)", "setting": "patients with OAB; vibegron 15 mg", "value": "−0.34 (−2.46, 1.78) mm Hg"}, {"measurement": "DBP Change from Baseline [≥] 5 mm Hg, n/N (%)", "setting": "patients with OAB; vibegron 50 mg", "value": "11/144 (7.6) %"}, {"measurement": "DBP Change from Baseline [≥] 10 mm Hg, n/N (%)", "setting": "patients with OAB; vibegron 50 mg", "value": "5/144 (3.5) %"}, {"measurement": "DBP Change from Baseline ≥15 mm Hg, n/N (%)", "setting": "patients with OAB; vibegron 50 mg", "value": "1/144 (0.7) %"}, {"measurement": "HR Change from Baseline [≥] 10 bpm, n/N (%)", "setting": "patients with OAB; vibegron 50 mg", "value": "4/144 (2.8) %"}, {"measurement": "HR Change from Baseline ≥5 bpm, n/N (%)", "setting": "patients with OAB; vibegron 50 mg", "value": "12/144 (8.3) %"}, {"measurement": "HR Change from Baseline ≥15 bpm, n/N (%)", "setting": "patients with OAB; vibegron 50 mg", "value": "1/144 (0.7) %"}, {"measurement": "SBP Change from Baseline [≥] 5 mm Hg, n/N (%)", "setting": "patients with OAB; vibegron 50 mg", "value": "24/144 (16.7) %"}, {"measurement": "SBP Change from Baseline [≥] 10 mm Hg, n/N (%)", "setting": "patients with OAB; vibegron 50 mg", "value": "14/144 (9.7) %"}, {"measurement": "SBP Change from Baseline ≥15 mm Hg, n/N (%)", "setting": "patients with OAB; vibegron 50 mg", "value": "3/144 (2.1) %"}, {"measurement": "DBP Change from Baseline, Mean (95% CI) Max", "setting": "patients with OAB; vibegron 50 mg", "value": "4.19 (3.10, 5.29) mm Hg"}, {"measurement": "HR Change from Baseline, Mean (95% CI) Maximum", "setting": "patients with OAB; vibegron 50 mg", "value": "5.49 (4.28, 6.69) bpm"}, {"measurement": "SBP Change from Baseline, Mean (95% CI) Maximum", "setting": "patients with OAB; vibegron 50 mg", "value": "7.01 (5.31, 8.70) mm Hg"}, {"measurement": "DBP Change from Baseline, Mean (95% CI) (week 1)", "setting": "patients with OAB; vibegron 50 mg", "value": "−0.70 (−2.07, 0.67) mm Hg"}, {"measurement": "HR Change from Baseline, Mean (95% CI) (week 1)", "setting": "patients with OAB; vibegron 50 mg", "value": "0.29 (−0.88, 1.46) bpm"}, {"measurement": "SBP Change from Baseline, Mean (95% CI) (week 1)", "setting": "patients with OAB; vibegron 50 mg", "value": "−0.79 (−2.65, 1.08) mm Hg"}, {"measurement": "subjects with orthostatic related AEs", "setting": "patients with OAB; vibegron 100 mg group", "value": 1.1, "unit": "%"}, {"measurement": "DBP Change from Baseline [≥] 5 mm Hg, n/N (%)", "setting": "patients with OAB; vibegron 100 mg", "value": "31/237 (13.1) %"}, {"measurement": "DBP Change from Baseline [≥] 10 mm Hg, n/N (%)", "setting": "patients with OAB; vibegron 100 mg", "value": "8/237 (3.4) %"}, {"measurement": "DBP Change from Baseline ≥15 mm Hg, n/N (%)", "setting": "patients with OAB; vibegron 100 mg", "value": "3/237 (1.3) %"}, {"measurement": "HR Change from Baseline [≥] 10 bpm, n/N (%)", "setting": "patients with OAB; vibegron 100 mg", "value": "7/237 (3.0) %"}, {"measurement": "HR Change from Baseline ≥5 bpm, n/N (%)", "setting": "patients with OAB; vibegron 100 mg", "value": "28/237 (11.8) %"}, {"measurement": "HR Change from Baseline ≥15 bpm, n/N (%)", "setting": "patients with OAB; vibegron 100 mg", "value": "1/237 (0.4) %"}, {"measurement": "SBP Change from Baseline [≥] 5 mm Hg, n/N (%)", "setting": "patients with OAB; vibegron 100 mg", "value": "28/237 (11.8) %"}, {"measurement": "SBP Change from Baseline [≥] 10 mm Hg, n/N (%)", "setting": "patients with OAB; vibegron 100 mg", "value": "10/237 (4.2) %"}, {"measurement": "SBP Change from Baseline ≥15 mm Hg, n/N (%)", "setting": "patients with OAB; vibegron 100 mg", "value": "3/237 (1.3) %"}, {"measurement": "DBP Change from Baseline, Mean (95% CI) Max", "setting": "patients with OAB; vibegron 100 mg", "value": "4.80 (3.88, 5.72) mm Hg"}, {"measurement": "HR Change from Baseline, Mean (95% CI) Maximum", "setting": "patients with OAB; vibegron 100 mg", "value": "6.12 (5.10, 7.15) bpm"}, {"measurement": "SBP Change from Baseline, Mean (95% CI) Maximum", "setting": "patients with OAB; vibegron 100 mg", "value": "6.51 (5.09, 7.93) mm Hg"}, {"measurement": "DBP Change from Baseline, Mean (95% CI) (week 1)", "setting": "patients with OAB; vibegron 100 mg", "value": "−0.69 (−1.72, 0.34) mm Hg"}, {"measurement": "HR Change from Baseline, Mean (95% CI) (week 1)", "setting": "patients with OAB; vibegron 100 mg", "value": "0.35 (−0.69, 1.38) bpm"}, {"measurement": "SBP Change from Baseline, Mean (95% CI) (week 1)", "setting": "patients with OAB; vibegron 100 mg", "value": "−0.77 (−2.22, 0.68) mm Hg"}, {"measurement": "Apparent terminal t1/2", "setting": "[1]", "value": "92.5 (9.37%) hr"}, {"measurement": "thorough QT study finding", "setting": "healthy subjects [2]", "value": "no clinically meaningful effect on QTc or blood pressure"}, {"measurement": "Maximum MA4 HR change from baseline, LS mean", "setting": "healthy subjects [3]; 25 mg QD", "value": 1.47, "unit": "bpm"}, {"measurement": "Maximum MA4 HR, difference from placebo", "setting": "healthy subjects [3]; 25 mg QD", "value": "−1.60", "unit": "bpm"}, {"measurement": "Maximum MA4 HR change from baseline, LS mean", "setting": "healthy subjects [3]; 50 mg QD", "value": 1.50, "unit": "bpm"}, {"measurement": "Maximum MA4 HR, difference from placebo", "setting": "healthy subjects [3]; 50 mg QD", "value": "−1.57", "unit": "bpm"}, {"measurement": "Maximum MA4 HR change from baseline, LS mean", "setting": "healthy subjects [3]; 100 mg QD", "value": 3.28, "unit": "bpm"}, {"measurement": "Maximum MA4 HR change from baseline, LS mean", "setting": "healthy subjects [3]; 150 mg QD", "value": 3.17, "unit": "bpm"}, {"measurement": "Maximum MA4 HR, difference from placebo", "setting": "healthy subjects [3]; 150 mg QD", "value": 0.10, "unit": "bpm"}, {"measurement": "Maximum MA4 HR change from baseline, LS mean", "setting": "healthy subjects [3]; 200 mg QD", "value": 5.67, "unit": "bpm"}, {"measurement": "Maximum MA4 HR, difference from placebo", "setting": "healthy subjects [3]; 200 mg QD", "value": 2.60, "unit": "bpm"}, {"measurement": "Maximum MA4 HR change from baseline, LS mean", "setting": "healthy subjects [3]; 300 mg QD", "value": 9.06, "unit": "bpm"}, {"measurement": "Maximum MA4 HR, difference from placebo", "setting": "healthy subjects [3]; 300 mg QD", "value": 5.98, "unit": "bpm"}, {"measurement": "Maximum MA4 HR change from baseline, LS mean", "setting": "healthy subjects [3]; 400 mg QD", "value": 10.33, "unit": "bpm"}, {"measurement": "Maximum MA4 HR, difference from placebo", "setting": "healthy subjects [3]; 400 mg QD", "value": 7.26, "unit": "bpm"}, {"measurement": "treatment-emergent SAEs or deaths", "setting": "healthy subjects [4]; Phase 1 program", "value": "no treatment-emergent serious adverse events (SAEs) or deaths reported"}, {"measurement": "tolerability across the Phase 1 program", "setting": "healthy subjects [4]; single 2 to 600 mg, multiple 25 to 400 mg up to 28 days", "value": "generally well tolerated"}, {"measurement": "tolerability", "setting": "[5]", "value": "favorable"}, {"measurement": "binding to β1-AR", "setting": "β1-AR", "value": "does not bind"}]}]}
